Values quoted from earlier work, collected in patent EP0268928A2, “Safened pesticidal dispersion resin compositions for controlling soil borne pests and process for the preparation thereof” (priority 1986, dated 1988).

Test system: rats
Settings: technical grade

Structure (SMILES): CCOP(=S)(OCC)SCSCC [phorate, 0,0-diethyl-S-(ethylthiomethyl)phosphorodithioate]
- acute oral LD50 value in rats: 1.6-3.7 mg technical/kg
